Assay results published in ChEMBL document CHEMBL6074660, “Recent advances in peptoids as promising antimicrobial agents to target diverse microbial species” (Eur J Med Chem, 2024).
Numbered stars: 1 amine (or outer) side, 2 acyl side, 3 side chain; on linkers, the order of the positions; unused ones are H or OH. Square brackets hold non-standard residues; d marks the D form. Peptide text beside a SMILES is read from it. dAla(N-(6-guanidinohexyl)) = C[C@@H](NCCCCCCNC(=N)N)C(=O)O; X1 = C[C@@H](C(=O)[*:2])N(CCCCCCN)[*:1]; X2 = C[C@H](C(=O)[*:2])N(CCCCCCN)[*:1]; 2Nal = N[C@@H](Cc1ccc2ccccc2c1)C(=O)O; X5 = C[C@H](C(=O)[*:2])N(CCCCCN)[*:1]; Gly(N-2-aminoethyl) = NCCNCC(=O)O; Nspe = C[C@H](NCC(=O)O)c1ccccc1

test system: Leishmania mexicana; test: Antileishmanial activity against Leishmania mexicana promastigotes; assay type: functional; conditions: read-out: ED50 (the source's name)

C[C@@H](c1ccccc1)N(CC(N)=O)C(=O)CN(C(=O)CN(CCN)C(=O)CN(C(=O)CN(C(=O)CN(CCN)C(=O)CN(C(=O)CN(C(=O)CN(CCN)C(=O)CN(C(=O)CN(C(=O)CNCCN)[C@@H](C)c1ccccc1)[C@@H](C)c1ccccc1)[C@@H](C)c1ccccc1)[C@@H](C)c1ccccc1)[C@@H](C)c1ccccc1)[C@@H](C)c1ccccc1)[C@@H](C)c1ccccc1 (H-[Gly(N-2-aminoethyl)][Nspe][Nspe][Gly(N-2-aminoethyl)][Nspe][Nspe][Gly(N-2-aminoethyl)][Nspe][Nspe][Gly(N-2-aminoethyl)][Nspe][Nspe]-NH2) gave an EC50 of 7000 nM.

test system: Leishmania amazonensis; test: Antileishmanial activity against Leishmania amazonensis promastigotes assessed as inhibition of parasite growth at 10 uM incubated for 24 hrs relative to control; assay type: functional; design: scale not given: the % may be the effect or the level left; conditions: not given

For CCCCN(C(C)=O)C(C(=O)NCS(=O)(=O)c1ccc(C)cc1)c1ccccc1 (stereo unspecified), the Activity was 66.83%.

test system: Leishmania mexicana; test: Antileishmanial activity against Leishmania mexicana amastigotes; assay type: functional; conditions: read-out: ED50 (the source's name)

C[C@@H](c1ccccc1)N(CC(N)=O)C(=O)CN(C(=O)CN(CCN)C(=O)CN(C(=O)CN(C(=O)CN(CCN)C(=O)CN(C(=O)CN(C(=O)CN(CCN)C(=O)CN(C(=O)CN(C(=O)CNCCN)[C@@H](C)c1ccccc1)[C@@H](C)c1ccccc1)[C@@H](C)c1ccccc1)[C@@H](C)c1ccccc1)[C@@H](C)c1ccccc1)[C@@H](C)c1ccccc1)[C@@H](C)c1ccccc1 (H-[Gly(N-2-aminoethyl)][Nspe][Nspe][Gly(N-2-aminoethyl)][Nspe][Nspe][Gly(N-2-aminoethyl)][Nspe][Nspe][Gly(N-2-aminoethyl)][Nspe][Nspe]-NH2) gave an EC50 of 17000 nM.

test system: Plasmodium falciparum; test: Antiplasmodial activity against Plasmodium falciparum 3D7 assessed as inhibition of parasite growth; assay type: functional, organism-based; conditions: not given

Going from CN(C)c1ccc(C(=O)N(CC(=O)NCc2ccccc2)Cc2ccc(C(=O)NO)cc2)cc1 to CC(C)c1ccc(C(=O)N(CC(=O)NCc2ccccc2)Cc2ccc(C(=O)NO)cc2)cc1, the IC50 falls from 9 nM to 5 nM (1.8-fold). The second is the more potent here.

Going from Cc1ccccc1C(=O)N(CC(=O)NC(C)(C)C)Cc1ccc(C(=O)NO)cc1 to COc1ccccc1C(=O)N(CC(=O)NC(C)(C)C)Cc1ccc(C(=O)NO)cc1, the IC50 rises from 110 nM to 250 nM (2.3-fold).

First: Cc1cc(C)cc(C(=O)N(CC(=O)NCc2ccc(F)cc2)Cc2ccc(C(=O)NO)cc2)c1
Second: Cc1ccc(CNC(=O)CN(Cc2ccc(C(=O)NO)cc2)C(=O)c2cc(C)cc(C)c2)cc1
The IC50 of the first is 1.9-fold higher: 80 nM for the first, 42 nM for the second.

First: Cc1cccc(CNC(=O)CN(Cc2ccc(C(=O)NO)cc2)C(=O)c2cc(C)cc(C)c2)c1
Second: Cc1cc(C)cc(C(=O)N(CC(=O)NCc2ccccc2)Cc2ccc(C(=O)NO)cc2)c1
The IC50 of the first is 3.2-fold higher: 120 nM for the first, 37 nM for the second.

Going from CC(C)c1ccc(C(=O)N(CC(=O)NC2CCCCC2)c2ccc(C(=O)NO)cc2)cc1 to Cc1cc(C)cc(C(=O)N(CC(=O)NC2CCCCC2)c2ccc(C(=O)NO)cc2)c1, the IC50 rises from 570 nM to 77700 nM (140-fold). The first is the more potent here.

First: CN(C)c1ccc(C(=O)N(Cc2ccc(C(=O)NO)cc2)C(C)(C)C(=O)NC2CCCCC2)cc1
Second: CN(C)c1ccc(C(=O)N(Cc2ccc(C(=O)NO)cc2)C(C(=O)NC2CCCCC2)c2ccccc2)cc1 (stereo unspecified)
The IC50 of the first is 4.3-fold lower: 90 nM for the first, 390 nM for the second.

CNC(=O)CN(Cc1ccc(C(=O)NO)cc1)C(=O)c1ccccc1C and CNC(=O)CN(Cc1ccc(C(=O)NO)cc1)C(=O)c1cc(C)cc(C)c1 are within 1.5-fold of each other in IC50: 70 nM for the first, 50 nM for the second.

First: Cc1cc(C)cc(C(=O)N(CC(=O)NCc2ccc(Cl)cc2)Cc2ccc(C(=O)NO)cc2)c1
Second: COc1ccc(CNC(=O)CN(Cc2ccc(C(=O)NO)cc2)C(=O)c2cc(C)cc(C)c2)cc1
The IC50 of the first is 2.7-fold higher: 90 nM for the first, 33 nM for the second. The second is the more potent here.

Going from Cc1cc(C)cc(C(=O)N(CC(=O)NCc2ccc(C(C)(C)C)cc2)Cc2ccc(C(=O)NO)cc2)c1 to Cc1cc(C)cc(C(=O)N(CC(=O)NCc2cccnc2)Cc2ccc(C(=O)NO)cc2)c1, the IC50 falls from 110 nM to 70 nM (1.6-fold).

Going from Cc1cc(C)cc(CNC(=O)CN(Cc2ccc(C(=O)NO)cc2)C(=O)c2cc(C)cc(C)c2)c1 to CC(C)(C)c1ccc(C(=O)N(CC(=O)NCc2ccccc2)Cc2ccc(C(=O)NO)cc2)cc1, the IC50 falls from 70 nM to 8 nM (8.8-fold).

test system: Human immunodeficiency virus 1; test: Antiviral activity against HIV-1; assay type: functional, organism-based; conditions: not given

First: C[C@H]1C(=O)N[C@@H](CCCNC(=N)N)C(=O)N[C@@H](Cc2ccc3ccccc3c2)C(=O)NCC(=O)N[C@H](Cc2ccc(O)cc2)C(=O)N1CCCCCCN (cyclo([2Nal]G[dY][X1]R))
Second: C[C@@H]1C(=O)N[C@@H](CCCNC(=N)N)C(=O)N[C@@H](Cc2ccc3ccccc3c2)C(=O)NCC(=O)N[C@H](Cc2ccc(O)cc2)C(=O)N1CCCCCCN (cyclo([2Nal]G[dY][X2]R))
The EC50 of the first is 18-fold higher: 979000 nM for the first, 53000 nM for the second. The second is the more potent here.

In the case of C[C@@H]1C(=O)N[C@@H](CCCNC(=N)N)C(=O)N[C@@H](Cc2ccc3ccccc3c2)C(=O)NCC(=O)N[C@H](Cc2ccc(O)cc2)C(=O)N1CCCCCCNC(=N)N (cyclo([dY][dAla(N-(6-guanidinohexyl))]R[2Nal]G)), the EC50 is reported as 29000 nM.

biological target: C-X-C chemokine receptor type 4 (Homo sapiens, UniProt P61073); test: Inhibition of CXCR4 receptor (unknown origin); conditions: not given
Sequence (P61073 whole entry): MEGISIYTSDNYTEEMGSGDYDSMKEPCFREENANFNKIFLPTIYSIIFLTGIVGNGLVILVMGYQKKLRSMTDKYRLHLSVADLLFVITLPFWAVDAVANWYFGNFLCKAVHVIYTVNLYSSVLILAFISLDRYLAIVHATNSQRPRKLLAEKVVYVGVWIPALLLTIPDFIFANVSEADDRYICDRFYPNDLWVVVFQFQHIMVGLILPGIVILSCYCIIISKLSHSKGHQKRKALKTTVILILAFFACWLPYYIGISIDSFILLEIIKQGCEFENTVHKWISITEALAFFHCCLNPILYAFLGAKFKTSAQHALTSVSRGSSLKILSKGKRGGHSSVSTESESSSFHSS

First: C[C@H]1C(=O)N[C@@H](CCCNC(=N)N)C(=O)N[C@@H](Cc2ccc3ccccc3c2)C(=O)NCC(=O)N[C@H](Cc2ccc(O)cc2)C(=O)N1CCCCCCN (cyclo([2Nal]G[dY][X1]R))
Second: C[C@@H]1C(=O)N[C@@H](CCCNC(=N)N)C(=O)N[C@@H](Cc2ccc3ccccc3c2)C(=O)NCC(=O)N[C@H](Cc2ccc(O)cc2)C(=O)N1CCCCCCN (cyclo([2Nal]G[dY][X2]R))
The IC50 of the first is 310-fold higher: 94000 nM for the first, 300 nM for the second.

Compared with C[C@@H]1C(=O)N[C@@H](CCCNC(=N)N)C(=O)N[C@@H](Cc2ccc3ccccc3c2)C(=O)NCC(=O)N[C@H](Cc2ccc(O)cc2)C(=O)N1CCCCCN (cyclo([2Nal]G[dY][X5]R)), C[C@@H]1C(=O)N[C@@H](CCCNC(=N)N)C(=O)N[C@@H](Cc2ccc3ccccc3c2)C(=O)NCC(=O)N[C@H](Cc2ccc(O)cc2)C(=O)N1CCCCCCNC(=N)N (cyclo([dY][dAla(N-(6-guanidinohexyl))]R[2Nal]G)) is 40-fold lower in IC50: 1600 nM for the first, 40 nM for the second.

test system: Leishmania amazonensis; test: Antileishmanial activity against Leishmania amazonensis promastigotes assessed as inhibition of parasite growth at 10 uM incubated for 48 hrs relative to control; assay type: functional; design: scale not given: the % may be the effect or the level left; conditions: not given

CCCCN(C(C)=O)C(C(=O)NCS(=O)(=O)c1ccc(C)cc1)c1ccccc1 (stereo unspecified) showed an Activity of 87.87%.
